Earlier results as cited in patent US7045126B2, “Histone deacetylase-8 proteins, nucleic acids, and methods for use” (Applera Corporation, priority 1999, dated 2006).

Key:
tumor = tumor bearing nude mice
cell cycle = conditions: variety of systems
[1] = tested on: acute promyelocytic leukemia (APL); conditions: incl. retinoic acid resistant forms

Nc1ccccc1NC(=O)c1ccc(CNC(=O)OCc2cccnc2)cc1 [MS-27275]
histone hyperacetylation (histones): induces histone hyperacetylation
inhibition of tumor growth (tumor): demonstrates efficacy in inhibiting tumor growth

CC(/C=C/C(=O)NO)=C\[C@@H](C)C(=O)c1ccc(N(C)C)cc1 [trichostatin A]
cell cycle arrest and/or differentiation (cell cycle): induce cell cycle arrest and/or differentiation

CCCC(=O)[O-].[Na+] [sodium butyrate]
therapeutic use to target transcription in APL [1]: successful even in retinoic acid resistant forms of the disease
